Test results taken from patent publication US20070004660A1, “Synergistic Modulation of Flt3 Kinase Using Alkylquinolines and Alkylquinazolines” (priority 2005, published 2007).

Molecular target: T1, wild-type FLT3 receptor (Homo sapiens, UniProt P36888)
T1 construct: host or cells: Baf3 (murine B cell lymphoma line), stably transfected
T1 sequence (P36888 27-993): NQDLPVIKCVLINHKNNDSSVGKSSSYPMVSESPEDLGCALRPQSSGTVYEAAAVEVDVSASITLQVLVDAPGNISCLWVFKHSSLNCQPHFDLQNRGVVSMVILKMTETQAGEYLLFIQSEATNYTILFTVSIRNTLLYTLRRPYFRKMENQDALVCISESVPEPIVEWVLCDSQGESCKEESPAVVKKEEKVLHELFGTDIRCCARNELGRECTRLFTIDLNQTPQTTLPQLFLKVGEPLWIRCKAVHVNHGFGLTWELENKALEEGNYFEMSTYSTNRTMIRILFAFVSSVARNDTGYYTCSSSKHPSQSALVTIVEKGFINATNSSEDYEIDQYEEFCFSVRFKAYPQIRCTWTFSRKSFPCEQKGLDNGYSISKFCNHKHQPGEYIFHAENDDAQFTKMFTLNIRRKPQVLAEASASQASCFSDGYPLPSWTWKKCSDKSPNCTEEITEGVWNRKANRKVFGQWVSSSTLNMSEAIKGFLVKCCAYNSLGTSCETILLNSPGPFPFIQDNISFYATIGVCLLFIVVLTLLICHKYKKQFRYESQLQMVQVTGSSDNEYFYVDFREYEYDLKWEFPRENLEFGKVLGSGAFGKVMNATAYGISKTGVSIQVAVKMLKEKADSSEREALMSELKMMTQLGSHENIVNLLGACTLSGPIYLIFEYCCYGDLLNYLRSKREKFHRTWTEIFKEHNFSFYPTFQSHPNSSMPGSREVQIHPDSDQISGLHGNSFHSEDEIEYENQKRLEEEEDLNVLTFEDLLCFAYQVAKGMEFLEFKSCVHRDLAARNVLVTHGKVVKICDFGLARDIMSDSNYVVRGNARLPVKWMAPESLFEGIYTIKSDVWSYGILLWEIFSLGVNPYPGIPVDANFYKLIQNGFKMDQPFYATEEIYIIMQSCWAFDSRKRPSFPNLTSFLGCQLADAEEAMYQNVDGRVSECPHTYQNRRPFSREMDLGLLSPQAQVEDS
Assay: Cell-based FLT3 receptor ELISA (FLT ligand-induced phosphorylation in Baf3 FLT3 cells)
Settings: 100 ng/mL Flt ligand, uncertainty ±20%
Outline: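 Receptor phosphotyrosine measured by sandwich ELISA (anti-FLT3 capture, HRP anti-pTyr, luminescence) in FLT3-transfected murine Baf3 cells given 1 h compound pretreatment and 10 min 100 ng/mL FLT ligand after overnight low-serum starvation; triplicates, IC50 from nonlinear regression.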

SMILES | IC50 [µM]
COCCOc1ccc(NC(=O)N2CCC(c3ncnc4cc(OC)c(OC)cc34)CC2)cc1 [Example 40, 4-(6,7-Dimethoxy-quinazolin-4-yl)-piperidine-1-carboxylic acid [4-(2-methoxy-ethoxy)-phenyl]-amide] | 1.5
COc1cc2c(C3CCN(C(=O)Nc4ccc(N5CCOCC5)cc4)CC3)ncnc2cc1OCCCN1CCN(C)CC1 [Compound 207, 4-{6-Methoxy-7-[3-(4-methyl-piperazin-1-yl)-propoxy]-quinazolin-4-yl}-piperidine-1-carboxylic acid (4-morpholin-4-yl-phenyl)-amide] | 0.042
CC(C)Oc1ccc(NC(=O)N2CCC(c3ncnc4cc(OCCCN5CCOCC5)ccc34)CC2)cc1 [Example 38] | 0.015
COc1cc2ncnc(C3CCN(C(=O)Cc4ccc(C(C)C)cc4)CC3)c2cc1OC [Example 28, 1-[4-(6,7-Dimethoxy-quinazolin-4-yl)-piperidin-1-yl]-2-(4-isopropyl-phenyl)-ethanone] | 0.002
COc1cc2c(C3CCN(C(=O)Nc4ccc(N5CCCC5)cc4)CC3)ncnc2cc1OCCN1CCCC1=O [Compound 209, 4-{6-Methoxy-7-[2-(2-oxo-pyrrolidin-1-yl)-ethoxy]-quinazolin-4-yl}-piperidine-1-carboxylic acid (4-pyrrolidin-1-yl-phenyl)-amide] | 0.037
COc1cc2ncnc(C3CCN(C(=O)Nc4ccc(N(C)C)cc4)CC3)c2cc1OC [Example 26, 4-(6,7-Dimethoxy-quinazolin-4-yl)-piperidine-1-carboxylic acid (4-dimethylamino-phenyl)-amide] | 0.109
O=C(Nc1ccc(N2CCCC2)cc1)N1CCC(c2ncnc3cc(N4CCOCC4)c(F)cc23)CC1 [Compound 210, 4-(6-Fluoro-7-morpholin-4-yl-quinazolin-4-yl)-piperidine-1-carboxylic acid (4-pyrrolidin-1-yl-phenyl)-amide] | 0.025
CC(C)Oc1ccc(NC(=O)N2CCC(c3ncnc4cc(OCCCN5CCN(C)CC5)ccc34)CC2)cc1 [Example 39] | 0.008
COc1ccc2c(C3CCN(C(=O)Nc4ccc(C(C)C)cc4)CC3)ncnc2c1 [Example 32, 4-(7-Methoxy-quinazolin-4-yl)-piperidine-1-carboxylic acid (4-isopropyl-phenyl)-amide] | 0.035
CC(C)Oc1ccc(NC(=O)N2CCC(c3ncnc4cc(OCCN5CCCCC5)ccc34)CC2)cc1 [Example 34, 4-(7-(2-Piperindin-1-yl-ethoxy)-quinazolin-4-yl)-piperidine-1-carboxylic acid (4-isopropoxy-phenyl)-amide] | 0.079
O=C1CCCN1CCOc1cc2ncnc(C3CCN(C(=O)Nc4ccc(N5CCCC5)cc4)CC3)c2cc1F [Compound 206, 4-{6-Fluoro-7-[2-(2-oxo-pyrrolidin-1-yl)-ethoxy]-quinazolin-4-yl}-piperidine-1-carboxylic acid (4-pyrrolidin-1-yl-phenyl)-amide] | 0.022
CC(C)c1ccc(NC(=O)N2CCC(c3ncnc4cc(Cl)ccc34)CC2)cc1 [Example 30, 4-(7-Chloro-quinazolin-4-yl)-piperidine-1-carboxylic acid (4-isopropyl-phenyl)-amide] | 0.083
CC(C)Oc1ccc(NC(=O)N2CCC(c3ncnc4cc(Cl)ccc34)CC2)cc1 [Example 29, 4-(7-Chloro-quinazolin-4-yl)-piperidine-1-carboxylic acid (4-isopropoxy-phenyl)-amide] | 0.05
CC(C)Oc1ccc(NC(=O)N2CCC(c3ncnc4cc(OCCCN5CCCCC5)ccc34)CC2)cc1 [Example 33, 4-(7-(3-Piperidin-1-yl-propoxy)-quinazolin-4-yl)-piperidine-1-carboxylic acid (4-isopropoxy-phenyl)-amide] | 0.011
COc1ccc2c(C3CCN(C(=O)Nc4ccc(OC(C)C)cc4)CC3)ncnc2c1 [Example 31, 4-(7-Methoxy-quinazolin-4-yl)-piperidine-1-carboxylic acid (4-isopropoxy-phenyl)-amide] | 0.055
COc1cc2ncnc(C3CCN(C(=O)Nc4ccc(I)cc4)CC3)c2cc1OC [Example 2, 4-(6,7-Dimethoxy-quinazolin-4-yl)-piperidine-1-carboxylic acid (4-iodo-phenyl)-amide] | 0.89
COc1cc2c(C3CCN(C(=O)Nc4ccc(N5CCCC5)cc4)CC3)ncnc2cc1N1CCOCC1 [Compound 211, 4-(6-Methoxy-7-morpholin-4-yl-quinazolin-4-yl)-piperidine-1-carboxylic acid (4-pyrrolidin-1-yl-phenyl)-amide] | 0.001
CCN(CC)CCCOc1ccc2c(C3CCN(C(=O)Nc4ccc(OC(C)C)cc4)CC3)ncnc2c1 [Example 36, 4-[7-(3-Diethylamino-propoxy)-quinazolin-4-yl)-piperidine-1-carboxylic acid (4-isopropoxy-phenyl)-amide] | 0.018
CCN(CC)CCOc1ccc2c(C3CCN(C(=O)Nc4ccc(OC(C)C)cc4)CC3)ncnc2c1 [Example 35, 4-[7-(2-Diethylamino-ethoxy)-quinazolin-4-yl)-piperidine-1-carboxylic acid (4-isopropoxy-phenyl)-amide] | 0.06
COc1cc2c(C3CCN(C(=O)Nc4ccc(N5CCOCC5)cc4)CC3)ncnc2cc1N1CCOCC1 [Compound 212, 4-(6-Methoxy-7-morpholin-4-yl-quinazolin-4-yl)-piperidine-1-carboxylic acid (4-morpholin-4-yl-phenyl)-amide] | 0.093
COc1cc2ncnc(C3CCN(C(=O)Nc4ccc(-n5ccnc5)cc4)CC3)c2cc1OC [Example 3, 4-(6,7-Dimethoxy-quinazolin-4-yl)-piperidine-1-carboxylic acid (4-imidazol-1-yl-phenyl)-amide] | 0.938
CC(C)Oc1ccc(NC(=O)N2CCC(c3ncnc4cc(OCCN5CCOCC5)ccc34)CC2)cc1 [Example 37] | 0.051
COc1cc2ncnc(C3CCN(C(=O)Nc4ccc(NC(C)=O)cc4)CC3)c2cc1OC [Example 25, 4-(6,7-Dimethoxy-quinazolin-4-yl)-piperidine-1-carboxylic acid (4-acetylamino-phenyl)-amide] | > 10
